pKd: −log10 of the molar value.

For one data set, the system named is skin tumours. The conditions noted are these: 104 weeks, doses up to 260× of the recommended human dose (Protopic prescribing information); cited from earlier work.
Data set [1] concerns chemically (TPA+DMBA) induced tumour formation. The conditions noted are these: topical application, mouse model (Jiang et al. 1993); cited from earlier work.
Data set [2] in a line: Single dose pharmacokinetics after topical application to mouse ear. The conditions noted are these: single topical 10 μL of 3% solution in propylene glycol to ear, LOQ 3.5 ng/mL. The format is in vivo. On the procedure:
The single dose pharmacokinetics of Compound 1 (Cmpd 1) was assessed by topical administration of the compound as a formulation in propylene glycol (3% concentration) applied once per day (QD) to one ear only of C57BL/6 female mice, 8 weeks of age (N=2 or 3 per timepoint; samples taken 1, 6 and 24 h post administration of Compound 1).
Compound Application: Compound 1 (10 μL of a 3% solution in propylene glycol) was applied to mouse ears using a silicone brush. The brush was cleaned with distilled water and ethanol between applications. The vehicle solution was 100% propylene glycol.
Blood processing: Cryovials were prepared containing 10 μL 0.5 M EDTA and labelled appropriately. Cardiac bleed was performed on mice and blood transferred to an Eppendorf tube. Blood (110 μL) was transferred immediately to a cryovial containing EDTA and well mixed to prevent clotting. The cryovial was placed on dry ice and transferred to a −80° C. freezer.
Ear processing: Before taking ears for pharmacokinetics the skin was cleaned with distilled water and dried with cotton balls/swab before doing 2 tape strips (one piece of tape per strip). The whole ear was removed from the mouse. The weight of the whole ear was recorded and placed into an appropriate cryovial which was placed on dry ice then transferred to a −80° C. freezer.
Sample processing: A LC/MS/MS based bioanalytical method was developed for the detection and quantification of Compound 1 in mouse blood and ears. Calibration standards and quality control samples were prepared by adding 2.5 μL of stock solutions of test compound of different concentrations into 25 μL of naïve mouse blood or ear homogenates. Control samples were prepared by spiking 2.5 μL, of water or acetonitrile into 25 μL of naïve mouse blood or ear homogenates. The blood or ear samples were transferred into polypropylene Eppendorf tubes. […] 20-40 μL of the supernatant was analysed by LCMS/MS, using the same instrument, column, Mobile phase A, Mobile phase B, gradient and other parameters as outlined above for the tumour sample processing.

A further data set has as its target FKBP12 enzyme (Homo sapiens, UniProt P62942). Briefly: TR-FRET assay, competition for tacrolimus (FK506) binding to FKBP12. Conditions: 8-point dilution 0.001 nM to 10 μM, 30 min room temperature.
In data set [3] the test system is 5117-RE (spindle cell sarcoma) cells. Briefly: Mouse back 5117-RE tumour model (spindle cell sarcoma, Kaposi sarcoma model). The format is in vivo. As to the method: Tacrolimus diet: All customised mice diet was manufactured by Specialty Feeds (Perth, Wash.). Briefly, tacrolimus (MedChemExpress) was mixed with caster sugar and then incorporated into standard mouse diet. […] Food colouring was added to distinguish the drug. During the manufacturing process the pellets were air-dried overnight rather than dried in an oven in order to minimise the amount of heat applied. The final product was sealed in airtight bags and stored at 4° C. protected from light to ensure minimal degradation. Pellet volumes in feed hoppers were kept to a minimum and restocked every 3-4 days for the duration of the experiments.
Compound 1 preparation: Compound 1 (Cmpd 1) was prepared at the beginning of each dosing week as a 1 or 2 mg/mL solution as required in 4% ethanol/0.2% Tween-80/PBS. Compound 1 solution was stored at 4° C. for up to one week.
Mouse back 5117-RE tumour model: Method as per the above section (Mouse back cSCC tumour model), with the following changes; BALBc mice were used, and 5117-RE cells were cultured and passaged for 1 week prior to tumour cell injection in RPMI media (Gibco) supplemented with 10% heat inactivated FBS (Gibco) and 1× Penicillin/Streptomycin/Glutamine (Gibco).
Dissociation of tumour cells for FACS analysis: To release cells from tumours, harvested tissue was cut into small fragments and digested for 60 min at 37° C. in RPMI media containing 2% FBS, 3 mg/mL collagenase D and 5 ug/mL DNase I. Tissues were then gently pressed through a 70 μm cell strainer to create a single-cell suspension. […]
FACS analysis: Stained tumour dissociated cells were then washed twice, resuspended in FACS buffer and Flow cytometric analysis was performed using LSR Fortessa X20 (BD Biosciences) flow cytometers with FACSDiva. software (Becton Dickinson, Sparks, Md., USA). Data were exported and analyzed using FlowJo software (I'reestar Inc., Ashland, Oreg., USA).
Mice were injected sub-cutaneously with 1×10^6 5117-RE (spindle cell sarcoma) cells into the lower back and tumour size was monitored 3 times a week throughout the experiment. […]

For another data set, the system named is HPV38-E6/E7 SCC cells. Briefly: Mouse back cSCC tumour model, tacrolimus diet, intra-tumoural injection. The conditions noted are these: in vivo.

Chain of FKBP12 enzyme (P62942 whole entry, species assumed): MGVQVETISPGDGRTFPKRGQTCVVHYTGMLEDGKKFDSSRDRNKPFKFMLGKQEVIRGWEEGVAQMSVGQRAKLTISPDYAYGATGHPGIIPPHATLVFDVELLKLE
Method for FKBP12 enzyme: The FKBP12 enzyme used in the assay is tagged with a polyhistidine sequence. An anti-6xHis antibody, labelled with a fluorescent donor, F(d), binds the tagged enzyme. The enzyme ligand, FK506 is tagged with a fluorescent acceptor, F(a) and binds the enzyme. […] In the presence of a test inhibitor which competes for FK506, the complex is disrupt& and is no longer in close proximity, resulting in emission at wavelength A due to the F(d). […] The inhibitors were added to the master mix in the assay plate containing the enzyme/antibody/ligand complex, with a final detergent concentration of 0.005%. The reaction was incubated for 30 min at room temperature and then read on a SpectraMax M5 (Molecular Devices) at wavelengths A (615 nm) and B (665 nm). The ratio between light emission (wavelength B/A) is calculated and the blank subtracted values were plotted against the inhibitor concentration in Logio molar and fitted using one site Ki non-linear regression to determine the Kd of the bound test inhibitor.

Consider `C=CC[C@@H]1/C=C(\C)C[C@H](C)C[C@H](OC)[C@H]2O[C@@](O)(C(=O)C(=O)N3CCCC[C@H]3C(=O)O[C@H](/C(C)=C/[C@@H]3CC[C@@H](O)[C@H](OC)C3)[C@H](C)[C@@H](O)CC1=O)[C@H](C)C[C@@H]2OC` [tacrolimus, reference compound], for which, in the data set with skin tumours, the “association of skin tumours with daily topical doses” value is recorded as “no association”. The “reduction of chemically (TPA+DMBA) induced tumour formation” value in data set [1] is on record as 80%.
As a reminder, the pKd is the Kd on a negative log10 scale, so that one unit is a factor of ten. Read a high pKd as a small Kd. Turning to `CC[C@@H]1/C=C(\C)[C@@H](O)[C@H](C)C[C@H](OC)[C@H]2O[C@@](O)(C(=O)C(=O)N3CCCC[C@H]3C(=O)O[C@H](/C(C)=C/[C@@H]3CC[C@@H](O)[C@H](OC)C3)[C@H](C)[C@@H](O)CC1=O)[C@H](C)C[C@@H]2OC` [Compound 1, 17-Ethyl-1,14,20-trihydroxy-12-[2′-(4″-hydroxy-3″-methoxycyclohexyl)-1′-methylvinyl]-23,25-dimethoxy-13,19,21,27-tetramethyl-11,28-dioxa-4-azatricyclo-[22.3.1.0^4,9]octacos-18-ene-2,3,10,16-tetraone], the Concentration in blood entry in data set [2] (1 h) is given as “BLQ”. In addition, the Concentration in blood result in data set [2] (6 h) is on record as “BLQ”. Further, the Concentration in blood result in data set [2] (24 h) is “BLQ”. This molecule showed a pKd at FKBP12 enzyme of 8.55. In addition, the “tacrolimus dependent-tumour growth compared to the vehicle control” value in data set [3] (BALBc mice, BID IT 40 μL of 2 mg/mL, after 10 days treatment, tacrolimus 150 ppm diet) is “significantly reduced”. Moreover, the “percentage of TNF alpha+ CD8 T cells isolated from the tumour” value in data set [3] (after 13 days treatment) was “significantly increased”. Further, the “percentage of IFN gamma+ CD8 T cells isolated from the tumour” value in data set [3] (after 13 days treatment, ex vivo stimulation with CD3/CD28) is listed as “significantly increased”. In the data set on HPV38-E6/E7 SCC cells, the “percentage of CD69+ (activated) CD8 T cells isolated from the tumour” value is “significantly increased”, the “percentage of IFN gamma+ CD8 T cells isolated from the tumour” value was “significantly increased”, the “percentage of TNF alpha+ CD8 T cells isolated from the tumour” value was “significantly increased” and the “tacrolimus dependent-tumour growth compared to the vehicle control” value is “significantly reduced”. Also, in the data set with HPV38-E6/E7 SCC cells, the “tacrolimus dependent-tumour growth compared to the vehicle control, without CD8 depletion” value is reported as “significantly reduced” and the “tumour regression after CD8 depletion” value is recorded as “no longer able cause tumour regression”.

The record behind these values is patent US20230218589A1, “COMPOUND FOR PREVENTION OR TREATMENT OF A SKIN CANCER OR SKIN PRECANCER” (UNIQUEST PTY LTD, priority 2020, published 2023).
